In one data set the test system is M. catarrhalis. As to the kind of experiment: AMP inhibitory testing without macrophages, dilution and plating (Figure S1). It is filed as cell-based, Moraxella catarrhalis. The method, then:
Colonies of M. catarrhalis were grown on sheep blood agar plates for 12 h at 37°C and 5% CO2 before transfer to brain heart infusion (BHI) medium (Carl Roth, Karlsruhe, Germany) at an initial concentration of 1.6 × 10^7 cells/ml (OD600 = 0.08) as determined using an Ultraspec 10 cell densitometer (Amersham BioSciences, Little Chalfont, UK). Bacteria were cultivated in a shaking incubator at 37°C until the concentration reached 1.2 × 10^8 cells/ml (OD600 = 0.6) and then diluted to 2 × 10^6 cells/ml (OD600 = 0.011). To establish the optimal concentration ranges for AMP activity, defensin 1 was prepared as a two-fold dilution series from 12.5 µM to 1.56 µM and was added to the bacterial cultures, which were incubated as above for a further 16 h. Untreated cultures were used as controls. The OD600 was measured automatically at 30-min intervals using an Infinite M200 Pro plate reader (Tecan Life Sciences, Männedorf, Switzerland). […] They were cultivated for a further 15 h at 37°C and 5% CO2 in serial dilution before manual counting of the colonies on each plate.

Data set [1] concerns BDMs infected with M. catarrhalis. Description: qRT-PCR of cytokine mRNA in infected BDMs. The class given is cell-based, human. Conditions: defensin 1 12.5 µM given 1 or 5 h after infection, MOI 0.5 or 1; collected 16 h post-infection. The method, then:
BDMs were infected with M. catarrhalis as described above and the cells and supernatant were collected 16 h post-infection. Total RNA was isolated by phenol-chloroform extraction followed by reverse transcription using the High-Capacity RNA-to-cDNA kit (Thermo Fisher Scientific, Waltham, MA, USA). Quantitative real-time PCR (qRT-PCR) was performed with the following specific primer pairs to measure the expression of IL-1β (forward primer 5′-AGCTCGCCAGTGAAATGATGG-3′ and reverse primer 5′-CAGGTCCTGGAAGGAGCACTTC-3′), IL-8 (forward primer 5′-ACTGAGAGTGATTGAGAGTGGAC-3′ and reverse primer 5′-AACCCTCTGCACCCAGTTTTC-3′), and RPS18 (forward primer 5′-GCGGCGGAAAATAGCCTTTG-3′ and reverse primer 5′-GATCACACGTCCACCTCATC-3′).
A general note: In qPCR the cycle at which signal appears reflects the starting amount.

For data set [2] the test system is unchanged. As to the kind of experiment: Multiplex ELISA of cytokines in BDM supernatant after infection. It is filed as cell-based, human. Conditions: defensin 1 12.5 µM, 1 or 5 h post-infection, MOI 0.5 or 1. The method, then: (§1) The presence of cytokines in the BDM supernatant after infection and treatment with 12.5 µM defensin 1 was assessed using the MAGPIX Multiplex ELISA (Luminex, Austin, TX, USA). BDM supernatants were prepared as recommended for the MAGPIX system. The cytokine panel comprised MIP1-α, MCP1, IL-1β, IL-6, IL-8, IL-10, IL-12p70, IL-23, LAP and TNF-α.
(§2) Statistical interpretation of the multiplex ELISA data required the incorporation of data points outside the detection range and adjustments for the effect of parallel technical measurements from the same biological samples. We therefore used the Hodges and Lehmann nonparametric aligned ranks test to compare cytokine secretion by treatment time within treatment groups and between the following control and treatment groups: […]
A general note: ELISA stands for enzyme-linked immunosorbent assay.

The next data set has as its system BDMs activated by LPS. As to the kind of experiment: Sterile activation of BDMs by LPS. It is filed as cell-based, human. As to conditions: defensin 1 added 1 h after LPS. As for the experimental part:
as §1, §2

The test system of the next data set is E. faecalis. Description: Growth kinetics of commensal E. faecalis. Conditions: liquid BHI medium, 37°C, OD600 every 30 min; defensin 1 12.5 µM, sarcotoxin 1 C 0.39 µM. The class given is cell-based, Enterococcus faecalis. The method, then: For the analysis of commensal bacteria, E. faecalis was grown on Columbia agar plates or in liquid BHI medium, and E. coli was grown on McConkey agar or in liquid LB medium. After overnight culture on agar plates at 37°C and 5% CO2, both species were transferred to liquid medium at an initial OD600 of 0.005. The cultures were maintained in a shaking incubator at 37°C, and the OD600 was measured automatically at 30-min intervals as above.

For the next data set, the system named is macrophages. Conditions: cited from earlier work. The text has this:
Defensin 1 limited the expressio ...

Another data set concerns Streptococcus pneumoniae. As to conditions: cited from earlier work. From the text: Among the 23 AMPs we tested, only defensin 1 was previously found to be effective against the Gram-positive pathogen Streptococcus pneumoniae. It is unclear whether the eﬃcacy of defensin 1 indeed lies in the structure of the peptide and whether other AMPs with different structures would also show activity against M. catarrhalis. We therefore also investigated L. sericata sarcotoxin 1 C, which has a linear α-helical structure without disulfide bridges.

The subject of data set [3] is commensal species (E. faecalis and E. coli). Conditions: previous study; cited from earlier work. From the text: We furthermore tested the effect of defensin 1 and sarcotoxin 1 C on the commensals E. faecalis and E. coli. Selectivity of AMPs may provide an important therapeutic advantage over broad-spectrum antibiotics because AMPs targeting pathogens but not commensals would avoid the common side effects of antibiotic therapy. […] Sarcotoxin 1 C was previously shown to inhibit 90% of clinical multidrug-resistant isolates of Ent ...

The conditions of data set [4]: up to a concentration of 100 µM; cited from earlier work.

Bridge positions count the residues as written; N and C are the ends.

With “H-VTCDLLSAEAKGVKVNHAACAAHCLLKRKRGGYCNKRRICVCRN-OH (disulfide 3-34, 20-40, 24-42 (inferred)) [Defensin 1]”, in the data set on M. catarrhalis (defensin 1 12.5 µM or sarcotoxin 1 C 0.39 µM in BHI, diluted in PBS with 0.15% gelatin, plated on sheep blood agar, 15 h, Figure S1), the “effect on bacterial growth upon dilution of the AMP by plating” value is given as “efficiently killed the bacteria”. In addition, the “bactericidal or bacteriostatic capacity” value in the data set on M. catarrhalis (growth of M. catarrhalis after dilution of the AMP) was “bactericidal”. In addition, in [1], the “IL-1β expression (mRNA, qRT-PCR)” value is “limited the expression” and the “IL-8 expression (mRNA, qRT-PCR)” value is reported as “limited the expression”. Besides, in data set [2], the “bacteria-induced secretion of IL-1β” value is “inhibited”, the “bacteria-induced secretion of IL-10” value is given as “inhibited”, the “bacteria-induced secretion of IL-12p70” value is on record as “inhibited” and the “bacteria-induced secretion of IL-23” value is on record as “inhibited”. Besides, in the data set on BDMs activated by LPS, the “sterile activation of BDMs by LPS in presence of peptide” value is recorded as “not significantly affected”. Moreover, the “effect on growth of E. faecalis” value in the data set with E. faecalis is “minor growth delay”. In addition, the toxicity toward macrophages result in the data set with macrophages is “nontoxic”. In addition, the “effective against Streptococcus pneumoniae” value in the data set with Streptococcus pneumoniae is on record as “effective”. Besides, in data set [3], the “effect against commensal species (E. faecalis, E. coli)” value is on record as “no effect”. The hemolytic activity entry in [4] is given as “minimal hemolytic activity”.

These data come from paper PMC8043168, “Tribolium castaneum defensin 1 kills Moraxella catarrhalisin an in vitro infection model but does not harm commensal bacteria” (Virulence, 2021).
